Common to all, as to assay type: in vivo, mouse
For test [1], the system named is Tg-APP/PS1 mice. The test can be described thus: Novel object recognition test. The conditions noted are these: Example 1, 1.2 mg/kg intraperitoneal, 4 times for 2 weeks from 6.5 months of age. How it is done:
(§1) The test substance was prepared by diluting GI210B1 obtained in Preparation Example 1 in saline, and it was intraperitoneally administered to 6.5-month-old Tg-APP/PS1 mice at a concentration of 1.2 mg/kg a total of 4 times for 2 weeks (FIG. 10).
(§2) In the Tg-APP/PS1 mice intraperitoneally administered with GI210B1 at 6.5 months of age in Example 1.1 above, behavioral characteristics of cognitive function were evaluated at 7.5 to 8.0 months of age. In order to evaluate the behavioral characteristics of cognitive function, a novel object recognition test (NOR test), a passive avoidance test, and a water maze test were performed. At that time, the three experiments for behavioral evaluation were performed according to a method known in the art.
All behavior evaluations were recorded with a computerized video-tracking system (SMART; Panlab S. I., Barcelona, Spain) and a webcam recording system (HD Webcam C210, Logitech, Newark, CA, USA). At that time, the background sound in the test room was set to 65 dB of white noise, and all behavioral tests were performed during the photoperiod (9 a.m. to 3 p.m.).
Specifically, the mice prepared in Example 1.1 above were repeatedly exposed to two objects of the same shape twice at intervals of 10 minutes in an open field (familiarization). […] In addition, two hours after the habituation of the mice was completed, the mice were exposed to a novel object and an old object, and then the time taken for the mouse to recognize each object was measured [2-hour-NOR (novel object recognition) experiment]. Thereafter, the mice returned to their home cage, and then the location of one of the just-exposed objects was moved, and then object distinguishment and recognition time were measured [2-hour-NLR (novel position recognition) experiment]. Thereafter, 24 hours after the habituation of the mice was completed, the mice were exposed to another object and an old object, and then the time taken for the mouse to approach each object was measured (24-hour-NOR experiment). […]

In test [2] the test system is Tg-APP/PS1 mice. Put plainly: Water maze test. Particulars: Example 1. The procedure:
as §1, §2
The water maze test is a cognitive behavior evaluation experiment conducted to measure spatial perception learning ability and memory dependent on the hippocampus area of the brain. […]
In addition, a hidden platform test was conducted on the 6th day. The hidden platform of the water maze was removed, and then the mouse was placed in the water maze and the location the mouse stayed for 60 seconds was recorded. At that time, the time and location that the mouse stayed in the four quadrants of the water maze for 60 seconds in the absence of a hidden platform were recorded. […]

The subject of test [3] is Tg-APP/PS1 mice. Put plainly: DCX immunochemical staining of hippocampal DG region. The conditions noted are these: Example 1; GI210B1 1.2 mg/kg intraperitoneal, 4 times for 2 weeks. From the text:
DCX (doublecortin) is continuously expressed during the 2-3 weeks during which immature neurons mature, and is expressed in […]. For this reason, DCX is used as a marker of neurogenesis, indicating the degree of neuronal differentiation and after the metaphase of newly generated neurons.
In order to confirm the effect of GI210B1 on the decreased neurogenesis in the DG (dentate gyrus) region of the hippocampus of Tg mice, the Tg-APP/PS1 mice administered with GI210B1 (Tg+GI210B1), the wild type mice (WT) as a normal group, and the Tg-APP/PS1 mice (Tg or Tg+Veh) as a control group were sacrificed, and then the brain tissue was extracted, and the DG region of the hippocampus was stained with DCX.
In the same manner as in Example 1.4.2 above, the mice from each group were sacrificed, and then the brain tissue was extracted, and the DG region of the hippocampus was stained with DCX.

Test [4] deals with Tg-APP/PS1 mice. The test can be described thus: Ki-67 staining of hippocampal DG region. Particulars: Example 1; GI210B1 1.2 mg/kg intraperitoneal, 4 times for 2 weeks. An excerpt: Ki-67 is a protein expressed in the nucleus during cell division.
In order to confirm the effect of GI210B1 on the decreased neurogenesis in the DG region of the hippocampus of Tg mice, the Tg-APP/PS1 mice administered with GI210B1 (Tg+GI210B1), the wild type mice (WT) as a normal group, and the Tg-APP/PS1 mice (Tg) as a control group were sacrificed, and then the brain was extracted, and the DG region of the hippocampus was fluorescently stained with Ki-67.

Consider “GI210B1: fusion protein dimer comprising GLP-1 (SEQ ID NO: 2), IgG4 Fc domain and IL-1Ra; SEQ ID NO: 10”, for which, in the test on Tg-APP/PS1 mice [1], the “recognition of a novel object, 24-hour-NOR experiment” value is given as “recognized a novel object for a longer time at a similar level to the normal group (WT)” and the “time taken for the mouse to recognize an object whose location was changed, 2-hour-NLR experiment” value was “increased similar to the normal group”. The “time taken for the mouse to recognize a novel object, 2-hour-NOR experiment” value in the test with Tg-APP/PS1 mice [1] (tested at 7.5 to 8.0 months) is given as “increased similar to the normal group (WT)”. Moreover, in the test with Tg-APP/PS1 mice [2] (6th day, platform removed, 60 seconds), the “time in target quadrant, hidden platform test” value was “recognized for a longer time compared to the control group (Tg+Veh)”. Also, the “time taken for the mouse to learn and find the location of the hidden platform (spatial perception training)” value with Tg-APP/PS1 mice [2] (training twice a day for 5 days, 1.2 mg/kg intraperitoneal, 4 times for 2 weeks) is “somewhat slower than that of the normal group, but faster than that of the control group (Tg+Veh)”. In addition, the “number of DCX positive cells in the DG region of the hippocampus” value with Tg-APP/PS1 mice [3] is “increased compared to the control group (Tg), and was recovered to a level similar to that of the normal group (WT)”. For the same substance, in the test with Tg-APP/PS1 mice [4], the “number of Ki-67 positive cells in the DG region of the hippocampus” value is listed as “increased compared to the Tg-APP/PS1 mice (Tg), which was a level similar to that of the normal group (WT)”.

Source of the values: patent US20250099548A1, “PHARMACEUTICAL COMPOSITION FOR PREVENTING OR TREATING DEGENERATIVE BRAIN DISEASES, CONTAINING GLUCAGON-LIKE PEPTIDE-1 AND INTERLEUKIN-1 RECEPTOR ANTAGONIST” (GI INNOVATION, INC., priority 2022, published 2025).
